From patent US8258186B2, “Pharmaceutical for oral delivery comprising MGBG” (Pathologica, LLC, priority 2009, dated 2012)

What was measured:
[1] = Rat single-dose pharmacokinetics; format: in vivo, Sprague Dawley rats
Protocol: Eighteen male Sprague Dawley rats (Charles River) weighing 217-263 g and aged 8-9 weeks were administered the test article, MGBG as either a single bolus intravenous dose of 1 mg/kg (Group 1) or as a single oral gavage dose of 10 mg/kg. A cohort of three animals was sacrificed via CO2 inhalation anaesthesia after final blood collection at each of T=2, 4, 12, 24, 36, and 48 hours post-dose. Dose formulation analysis verified administered dose solutions as within 17% of targeted concentration of 10 mg/kg.
Analysis was performed by LC/MS/MS. Pharmacokinetic analyses were performed on the mean MGBG plasma concentration versus time data using the non-compartmental approach (linear trapezoidal rule for AUC calculations). The WinNonlin sparse sampling tool was used for PK calculations. All samples reported as BQL (Below the Limit of Quantitation, in plasma 2.50 ng/mL) were changed to 0.00 ng/mL for the purpose of analysis.

[2] = Mouse single-dose pharmacokinetics; format: in vivo, DBA/1 mice; conditions: for AUC / Cmax: plasma
Protocol: Twenty-four male DBA/1 mice weighing 19.5-24.7 g and aged 7-9 weeks administered the test article, MGBG, as either a single bolus intravenous dose via a lateral tail vein of 1 mg/kg (Group 1, n=12) or as a single oral gavage dose of 10 mg/kg (Group 2, n=12). Each dose group consisted of 4 cohorts of 3 animals each. Group 1 was sampled at 5, 15, and 30 minutes after dosing; and 1, 2, 4, 8, and 24 hours after dosing. Group 2 was sampled at 1, 2, 4, 8, 12, 24, and 36 hours after dosing. Starting with the first time point, a new cohort was sampled at each successive time point up to the 1-hour (Group 1) or 12-hour (Group 2) time point. The order of sampling among the cohorts was repeated for the subsequent time points (some cohorts may have been bled only once). The second bleed for each cohort was terminal. Animals were sacrificed via CO2 inhalation anaesthesia after final blood collection.
The samples were centrifuged under refrigerated conditions following completion of sample collection at each interval. The resulting plasma was separated and stored frozen at approximately −70° C. until analysis. Analysis was performed by LC/MS/MS. Pharmacokinetic analyses were performed on the mean MGBG plasma concentration versus time data using the non-compartmental approach (linear trapezoidal rule for AUC calculations). The WinNonlin sparse sampling tool was used for PK calculations.

[3] = Multi-species allometric scaling, predicted pharmacokinetic parameters in humans; conditions: predicted human, based on Mouse, Dog, Rhesus
Excerpt: Multi-species allometric scaling based on pharmacokinetic parameters disclosed in Tables 2 and 3 was employed to calculate predicted pharmacokinetic parameters in humans according to methods known in the art. See, e.g., Ings R M, “Interspecies scaling and comparisons in drug development and toxicokinetics,” Xenobiotica, 1990 November; 20(11):1201-31 and Khor, S P et al., “Dihydropyrimidine dehydrogenase inactivation and 5-fluorouracil pharmacokinetics: allometric scaling of animal data, pharmacokinetics and toxicodynamics of 5-fluorouracil in humans,” Cancer Chemother Pharmacol (1997) 39(3): 833-38. Expected values are given below in Tables 6 and 7.

[4] = male, Sprague Dawley, plasma, single bolus IV 1 mg/kg, mean
[5] = male, Sprague Dawley, plasma, single oral gavage 10 mg/kg, mean
[6] = male, Sprague Dawley, single bolus IV 1 mg/kg, plasma, mean
[7] = single oral gavage 10 mg/kg, mean
[8] = male, DBA/1, plasma, single bolus IV 1 mg/kg, mean
[9] = male, DBA/1, plasma, single oral gavage 10 mg/kg, mean
[10] = male, DBA/1, single bolus IV 1 mg/kg, mean
[11] = male, DBA/1, single oral gavage 10 mg/kg, mean

**Q.** Which results are given for `CC(/C=N/NC(=N)N)=N\NC(=N)N` [MGBG, 1,1′[methylethanediylidene]dinitrilodiguanidine]?
**A.** clinical findings ([1]; following dosing): Abnormal clinical findings were not noted; bioavailability ([1]; male, Sprague Dawley, plasma, oral 10 mg/kg vs IV 1 mg/kg): 11.6%; Tmax [1, 4]: 0.083 h; half-life [1, 4]: 17.4 h; Tmax [1, 5]: 4.67 h; half-life [1, 5]: 28.1 h; AUC [1, 6]: 1.25 µg·h/mL; Cmax [1, 6]: 0.684 µg/mL; AUC ([1]; male, Sprague Dawley, single oral gavage 10 mg/kg, AUCall, time zero to last plasma concentration measurement): 1.28 µg·h/mL; Cmax ([1]; male, Sprague Dawley, single oral gavage 10 mg/kg, plasma, mean): 0.0558 µg/mL; time point through which MGBG levels in plasma were measurable ([1]; single PO 10 mg/kg, beyond that certain samples BLQ): 12 h; Clobs ([1]; single bolus IV 1 mg/kg, mean): 0.804 L/h/kg; VSSobs ([1]; single bolus IV 1 mg/kg, mean): 15.4 L/kg; Clobs [1, 7]: 0.191 L/h/kg; systemic plasma MGBG exposure ([2]; following IV and PO administration): observed at all collected plasma time points; clinical findings ([2]; following dosing): Abnormal clinical findings were not noted; bioavailability ([2]; male, DBA/1, plasma, oral 10 mg/kg vs IV 1 mg/kg): 44.3%; Tmax [2, 8]: 0.083 h; half-life [2, 8]: 13 h; Tmax [2, 9]: 1 h; half-life [2, 9]: 11.8 h; AUC [2, 10]: 0.336 µg·h/mL; Cmax [2, 10]: 0.181 µg/mL; AUC [2, 11]: 1.42 µg·h/mL; Cmax [2, 11]: 0.106 µg/mL; Clobs ([2]; single bolus IV 1 mg/kg, mean): 2.98 L/h/kg; VSSobs ([2]; single bolus IV 1 mg/kg, mean): 38.3 L/kg; Clobs [2, 7]: 0.401 L/h/kg; VSS ([3]; IV): 9.1 L/kg; t1/2 ([3]; IV): 13.3 h; t1/2 ([3]; IV, Rat): 13.4 h; CL ([3]; ORAL): 1.25 L/h/kg; t1/2 ([3]; ORAL): 23.0 h; t1/2 ([3]; ORAL, Rat): 23.3 h
